Key:
[1] = Recovery of activity of antibody-latex reagent after drying on plastic (turbidimetric agglutination rate vs liquid control)
Text: An agglutinating polymer was made by covalent attachment of about nine molecules of a peptide antigen to polyaspartic acid (M=15,000). A latex reagent was made by adsorption of a monoclonal antibody (which binds to the peptide antigen) to small latex particles (85 nm diameter) by adsorption. […] The mixture was aspirated into a temperature controlled flow cell of a spectrophotometer with a 1 cm optical path length and rapidly heated to […]. The change of apparent absorbance at 540 nm was then recorded over 20s.
Liquid was removed by exposure to desiccant under a variety of conditions (flowing air, flowing dry N₂, or vacuum).
Additives were added to the latex suspension at the indicated concentrations prior to drying. Recovery is given in Table 2 as a percentage of the activity of a non-dried (liquid) control. […]

[2] = Agglutination of dried hepatitis B virus core antigen coated latex in cartridge with serum samples; set-up: key: +: A positive reaction was recorded if the latex particles were agglutinated at the end of the track; conditions: serum sample containing antibodies to hepatitis virus core antigen
Method: Antigen coated latex (prepared as in Example 5) (1 µL x 1.0% w/v suspended in 0·1M glycine pH 8·4 containing 0·1 6 M NaCl and 3 mM Sodium Azide either with or without 5% sucrose) was coated on the surface of piece of PETG plastic. After drying under a stream of dry nitrogen, the piece was incorporated into a cartridge by lamination of a track excised from double sided adhesive tape (4 mill thick) as described in USP 4,756,884. To test the activity of the dry reagent films, serum samples containing or not containing antibodies to hepatitis virus core antigen were applied to the sample application site and the reaction between the sample and the reagent film observed as the sample flowed over the film and the mixture was drawn down the part of the track distal from the sample application site. A positive reaction was recorded if the latex particles were agglutinated at the end of the track.

[3] = additive concentration 5 % in the aqueous latex suspension applied to the plastic

SMILES	Activity (%) Ref = Liq [1, 3] [%]	other results
O=C([O-])[C@H](O)[C@@H](O)[C@H](O)[C@H](O)CO.[Na+] [35D-Gluconic Acid-Na+, D-Gluconic Acid-Na+]	41	
OC[C@@H](O)C(O)[C@H](O)CO [D-arabitol]	101	
Cl.N[C@H]1C(O)O[C@H](CO)[C@@H](O)[C@@H]1O (stereo partly drawn) [D-glucosamine-HCl]	25	
OC[C@@H](O)[C@H](O)[C@@H](O)CO [D-xylitol]	92	
OC[C@H](O)C(O)[C@@H](O)CO [L-arabitol]	94	
OC[C@@H](O)[C@H](O)[C@@H](O)CO [L-xylitol]	94	
OC[C@@H](O)[C@@H](O)[C@H](O)[C@H](O)CO [Mannitol]		Activity (%) Ref = Liq ([1]; additive concentration 4 % in the aqueous latex suspension applied to the plastic): 0%
OC[C@@H](O)[C@@H](O)[C@@H](O)CO [Ribitol]	70	
OC[C@@H](O)[C@@H](O)[C@H](O)[C@@H](O)CO [Sorbitol]	5	
OC[C@H]1O[C@@](CO)(O[C@H]2O[C@H](CO)[C@@H](O)[C@H](O)[C@H]2O)[C@@H](O)[C@@H]1O [Sucrose]		Agglutination + sample [2]: +

Source: EP0368624A2, “Method and composition for stabilizing and solubilizing latex reagents” (Biotrack, Inc., priority 1988, dated 1990)
